According to patent US20070249670A1, “Glycogen Phosphorylase Inhibitor Compounds and Pharmaceutical Compositions Thereof” (SMITHKLINE BEECHAM CORPORATION, priority 2004, published 2007):
Counter-ions that a name gives are not always drawn.

Target: T1, human liver glycogen phosphorylase a (HLGPa) (Homo sapiens, UniProt P06737)
T1 construct: creating a full-length cDNA fused at the 5′ end to codons for methionine-glycine-alanine-histidine; 6xHis tag (leader Met-Gly-Ala-His6-Gly-Gly) (N); made in house; host or cells: E. coli (bacterial expression plasmid pTXK1007LTev)
T1 sequence (P06737 2-847 limits assumed): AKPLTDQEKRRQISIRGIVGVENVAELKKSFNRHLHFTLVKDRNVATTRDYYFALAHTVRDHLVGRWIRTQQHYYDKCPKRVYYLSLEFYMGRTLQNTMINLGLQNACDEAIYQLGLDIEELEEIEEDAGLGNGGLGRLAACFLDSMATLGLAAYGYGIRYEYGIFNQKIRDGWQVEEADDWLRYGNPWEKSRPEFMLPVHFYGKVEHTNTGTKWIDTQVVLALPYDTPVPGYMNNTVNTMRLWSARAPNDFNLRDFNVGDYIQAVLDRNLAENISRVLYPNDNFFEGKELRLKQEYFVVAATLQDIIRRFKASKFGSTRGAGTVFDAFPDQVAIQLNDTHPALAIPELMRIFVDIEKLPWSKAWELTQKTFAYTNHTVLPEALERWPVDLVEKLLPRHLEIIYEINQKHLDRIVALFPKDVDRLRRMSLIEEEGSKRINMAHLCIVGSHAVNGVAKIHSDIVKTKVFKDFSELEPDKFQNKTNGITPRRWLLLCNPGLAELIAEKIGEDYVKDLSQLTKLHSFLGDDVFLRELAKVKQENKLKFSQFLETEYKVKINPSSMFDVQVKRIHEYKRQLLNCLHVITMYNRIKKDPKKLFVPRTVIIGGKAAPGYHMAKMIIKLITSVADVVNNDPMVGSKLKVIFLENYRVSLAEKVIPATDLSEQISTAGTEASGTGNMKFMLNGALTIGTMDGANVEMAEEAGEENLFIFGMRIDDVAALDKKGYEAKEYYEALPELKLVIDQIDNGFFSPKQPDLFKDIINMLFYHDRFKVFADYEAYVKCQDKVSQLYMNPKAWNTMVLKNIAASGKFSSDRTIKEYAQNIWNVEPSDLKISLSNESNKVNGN
Experiment: Human liver glycogen phosphorylase a enzymatic activity assay (coupled, fluorescent resorufin readout, with and without 10 mM glucose)
Type: biochemical

[1] = human liver glycogen phosphorylase a, table does not say whether with or without 10 mM glucose
[2] = human liver glycogen phosphorylase a enzymatic activity assay

Compound	IC50 [1]	IC50 [2]
Cc1cc(C)c(NC(=O)Nc2cc(-c3cccc(F)c3)ccc2C(=O)N[C@H](C(=O)O)C2CCCCC2)c(C)c1 [Example 234, (2S)-Cyclohexyl({[3′-fluoro-3-({[(2,4,6-trimethylphenyl)amino]carbonyl}amino)-4-biphenylyl]carbonyl}amino)ethanoic acid]	24 nM	–
Cc1cc(C)c(NC(=O)Nc2cc(-c3ccc(F)cc3)ccc2C(=O)N[C@H](C(=O)O)[C@@H](C)OC(C)(C)C)c(C)c1 [Example 527, O-(1,1-Dimethylethyl)-N-{[4′-fluoro-3-({[(2,4,6-trimethylphenyl)amino]carbonyl}amino)-4-biphenylyl]carbonyl}-L-threonine]	–	3 nM
CCCc1cc(C)c(NC(=O)Nc2cc(F)ccc2C(=O)N[C@H](C(=O)O)C2CCCCC2)c(C)c1 [Example 477, (2S)-cyclohexyl({[2-({[(2,6-dimethyl-4-propylphenyl)amino]carbonyl}amino)-4-fluorophenyl]carbonyl}amino)ethanoic acid]	–	8 nM
CCOC(=O)C[C@H](NC(=O)c1ccc(-c2cccc(F)c2)cc1NC(=O)Nc1c(C)cc(C)cc1C)C(=O)O [Example 506, (2S)-4-(ethyloxy)-2-({[3′-fluoro-3-({[(2,4,6-trimethylphenyl)amino]carbonyl}amino)-4-biphenylyl]carbonyl}amino)-4-oxobutanoic acid]	–	1090 nM
O=C(Nc1cc(-c2ccccc2)sc1C(=O)N[C@H](C(=O)O)C1CCCCC1)Nc1c(Cl)cccc1Cl [Example 411, (2S)-cyclohexyl({[3-({[(2,6-dichlorophenyl)amino]carbonyl}amino)-5-phenyl-2-thienyl]carbonyl}amino)ethanoic acid]	–	120 nM
O=C(Cc1c(Cl)cc(Cl)cc1Cl)Nc1cc(-c2ccccc2)ccc1C(=O)N[C@H](C(=O)O)C1CCCCC1 [Example 186, (2S)-Cyclohexyl{[(3-{[(2,4,6-trichlorophenyl)acetyl]amino}-4-biphenylyl)carbonyl]amino}ethanoic acid]	–	341 nM
Cc1cccc(C)c1NC(=O)Nc1cc2ccccc2cc1C(=O)N1CCC[C@H]1C(=O)O [Example 20, 1-[3-({[(2,6-dimethylphenyl)amino]carbonyl}amino)-2-naphthoyl]-L-proline]	–	2240 nM
O=C(O)C[C@H](NC(=O)c1c(NC(=O)Nc2c(Cl)cccc2Cl)sc2c1CCCC2)C(=O)O [Example 137, N-{[2-({[(2,6-dichlorophenyl)amino]carbonyl}amino)-4,5,6,7-tetrahydro-1-benzothien-3-yl]carbonyl}-L-aspartic acid]	–	4150 nM
Cc1ccccc1NC(=O)Nc1sc2ccccc2c1C(=O)N[C@H](C(=O)O)C1CCCCC1 [Example 141, (2S)-cyclohexyl({[2-({[(2-methylphenyl)amino]carbonyl}amino)-1-benzothien-3-yl]carbonyl}amino)acetic acid]	–	8710 nM
C[C@](NC(=O)c1ccc(F)cc1NC(=O)Nc1c(Cl)cc(OC(F)(F)F)cc1Cl)(C(=O)O)C1CCCCC1 [Example 474, 2-cyclohexyl-N-[(2-{[({2,6-dichloro-4-[(trifluoromethyl)oxy]phenyl}amino)carbonyl]amino}-4-fluorophenyl)carbonyl]-L-alanine]	–	145 nM
Cc1ccccc1NC(=O)Nc1cc2ccccc2cc1C(=O)N[C@@H](Cc1cnc[nH]1)C(=O)O [Example 44, N-[3-({[(2-methylphenyl)amino]carbonyl}amino)-2-naphthoyl]-L-histidine trifluoroacetate]	–	5180 nM
Cc1cc(C)c(NC(=O)Nc2cc3ccccc3cc2C(=O)NC2(C(=O)O)CCOCC2)c(C)c1 [Example 282, 4-({[3-({[(2,4,6-Trimethylphenyl)amino]carbonyl}amino)-2-naphthalenyl]carbonyl}amino)tetrahydro-2H-pyran-4-carboxylic acid]	1150 nM	–
COc1ccc(-c2nc(C(=O)NC3(C(=O)O)CCCCC3)c(NC(=O)Nc3c(C)cc(C)cc3C)s2)cc1 [Example 489, 1-({[2-[4-(Methyloxy)phenyl]-5-({[(2,4,6-trimethylphenyl)amino]carbonyl}amino)-1,3-thiazol-4-yl]carbonyl}amino)cyclohexanecarboxylic acid]	–	34 nM
COc1ccc(-c2cc(C(=O)N[C@H](C(=O)O)C3CCCCC3)c(NC(=O)Nc3c(C)cc(C)cc3C)s2)cc1 [Example 425, (2S)-cyclohexyl({[5-[4-(methyloxy)phenyl]-2-({[(2,4,6-trimethylphenyl)amino]carbonyl}amino)-3-thienyl]carbonyl}amino)ethanoic acid]	–	16 nM
Cc1ccccc1NC(=O)Nc1cc2ccccc2cc1C(=O)N[C@@H](CC(C)C)C(=O)O [Example 16, N-[3-({[(2-methylphenyl)amino]carbonyl}amino)-2-naphthoyl]-L-leucine]	–	5100 nM
COc1ccc(-c2cc(NC(=O)Nc3c(C)cc(C)cc3C)c(C(=O)NC3(C(=O)O)CCCCCC3)s2)cc1 [Example 453, 1-({[5-[4-(methyloxy)phenyl]-3-({[(2,4,6-trimethylphenyl)amino]carbonyl}amino)-2-thienyl]carbonyl}amino)cycloheptanecarboxylic acid]	–	4 nM
O=C(Nc1cc2ccccc2cc1C(=O)N[C@H](C(=O)O)C1CCCCC1)Nc1c(Cl)cccc1C(F)(F)F [Example 160, (2S)-({3-[({[2-chloro-6-(trifluoromethyl)phenyl]amino}carbonyl)amino]-2-naphthoyl}amino)(cyclohexyl)ethanoic acid]	–	68 nM
COc1ccc(-c2cnc(C(=O)N[C@H](C(=O)O)C3CCCCC3)c(NC(=O)Nc3c(C)cc(C)cc3C)c2)cc1 [Example 322, (2S)-Cyclohexyl({[5-[4-(methyloxy)phenyl]-3-({[(2,4,6-trimethylphenyl)amino]carbonyl}amino)-2-pyridinyl]carbonyl}amino)ethanoic acid]	83 nM	–
CCOC(=O)C[C@H](NC(=O)c1ccc(-c2ccc(F)c(F)c2)cc1NC(=O)Nc1c(C)cc(C)cc1C)C(=O)O [Example 374, (2S)-2-({[3′,4′-difluoro-3-({[(2,4,6-trimethylphenyl)amino]carbonyl}amino)-4-biphenylyl]carbonyl}amino)-4-(ethyloxy)-4-oxobutanoic acid]	820 nM	–
O=C(Nc1cc(-c2ccc(F)cc2)sc1C(=O)O)Nc1c(Cl)cccc1Cl [Example 385, 3-({[(2,6-dichlorophenyl)amino]carbonyl}amino)-5-(4-fluorophenyl)-2-thiophenecarboxylic acid]	1140 nM	–
COc1ccc(-c2ccc(C(=O)N[C@H](C(=O)O)C3CCCCC3)c(NC(=O)Nc3c(C)cc(C)cc3C)c2)cc1F [Example 237, (2S)-Cyclohexyl({[3′-fluoro-4′-(methyloxy)-3-({[(2,4,6-trimethylphenyl)amino]carbonyl}amino)-4-biphenylyl]carbonyl}amino)ethanoic acid]	20 nM	–
N#Cc1ccc(-c2cc(NC(=O)Nc3c(Cl)cccc3Cl)c(C(=O)O)s2)cc1 [Example 406, 5-(4-cyanophenyl)-3-({[(2,6-dichlorophenyl)amino]carbonyl}amino)-2-thiophenecarboxylic acid]	–	1110 nM
C[C@@H](O)[C@H](NC(=O)c1cc2ccccc2cc1NC(=O)Nc1ccccc1Cl)C(=O)O [Example 29, N-[3-({[(2-chlorophenyl)amino]carbonyl}amino)-2-naphthoyl]-L-threonine]	–	7260 nM
